T1: SlLACS2 (Solanum lycopersicum, UniProt Z9EVN9B4R8)
T1 construct: full-length ORF, His-tagged (pET28b, BamHI/SalI), E. coli Rosetta 2 (DE3), Ni-NTA
T1 sequence (Z9EVN9B4R8 1-659): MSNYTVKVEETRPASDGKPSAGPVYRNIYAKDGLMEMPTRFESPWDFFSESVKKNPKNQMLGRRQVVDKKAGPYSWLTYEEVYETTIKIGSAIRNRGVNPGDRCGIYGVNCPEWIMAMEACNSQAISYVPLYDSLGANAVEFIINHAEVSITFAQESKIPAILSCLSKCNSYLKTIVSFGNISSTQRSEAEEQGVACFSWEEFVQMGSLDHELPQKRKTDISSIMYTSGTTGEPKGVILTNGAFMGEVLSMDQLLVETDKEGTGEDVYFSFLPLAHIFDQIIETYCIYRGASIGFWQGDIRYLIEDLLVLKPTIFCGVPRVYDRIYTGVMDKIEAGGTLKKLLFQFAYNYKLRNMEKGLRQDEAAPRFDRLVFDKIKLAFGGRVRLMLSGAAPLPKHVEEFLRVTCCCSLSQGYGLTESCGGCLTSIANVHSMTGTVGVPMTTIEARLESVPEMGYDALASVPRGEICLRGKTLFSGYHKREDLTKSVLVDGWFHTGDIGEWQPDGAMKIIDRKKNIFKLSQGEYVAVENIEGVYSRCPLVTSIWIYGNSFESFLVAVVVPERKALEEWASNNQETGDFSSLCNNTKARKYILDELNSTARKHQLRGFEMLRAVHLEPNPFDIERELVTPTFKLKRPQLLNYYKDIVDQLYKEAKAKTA

B1: SlLACS1 (Solanum lycopersicum) (protein)
chain: MSMNKFGLKVEEGKEGKNGEPSIGPVYRNPIAKNGFPSADPDLSTAWQLFRSAVEKYPGNRMLGWRDFKDGKWGPYNWKTYKEAYEETLQTGSALRAHGIEPGARIGIYGANCPQWIVAMEACSAHSLICVPLYDTLGSGAVDFIIEHAEIDIVFVQDKKVKELLNAECTHAKRLKLIVCFTLLQQEEKDKAVSMNIKPYSWNEFLNMGKENPSEPSPPQPLDICTIMYTSGTSGEPKGVILTHENMTASVTGVDHFMEEFEDKMTVDDVYISFLPLAHILDRMIEEFFFHRGASVGYFHGNINEIQEDMMELKPTFLAGVPRVYEKVHEGVLKALEELNPFRRHMFHVLYNFKLKWMNLGYKQKYASRLADLLAFRKVKNRLGGRIRLIVSGGAPLSTEVEEFLRVTSCGFVLQGYGLTETCGLATIGHPDEMCMLGTVGPPFVFTEVRLEEVPEMGYDPLADPSRGEICVRGRTTFTGYYKNPELTREAIKDGWFHTGDIGEMMPNGVVKVIDRKKNVIKLSQGEYVALEYLEKVYAIAPIVEDIWVYGDSFKSMLIAVVAPHEGNTKKWADKNGHKGSITELCSLQDLNQYVLLELKSAAERNKLRGFENIKGVILEPQPFEFDKELVTATMKKRRERLLKRYKLEIDDLYKRLNAAAKR
notes: full-length ORF, His-tagged (pET28b, BamHI/SalI), E. coli Rosetta 2 (DE3), Ni-NTA

Tests used:
[1] = system: T2, MvLACS; experiment: coupled myokinase/pyruvate kinase/lactate dehydrogenase assay, NADH at […] nm; format: biochemical, Mesostigma viride; details: 0.1 M Tris-HCl pH 7.5, 30 °C, 5 mM ATP, 0.5 mM CoA, 10 mM MgCl2, 2 mM DTT; fatty acid 0-1 mM from stock in 5% Triton X-100
T2 construct: full-length ORF, His-tagged (pET28b, BamHI/SalI), E. coli Rosetta 2 (DE3), Ni-NTA

[2] = system: T3, MeLACS; experiment: as above; format: biochemical, Mesotaenium endlicherianum; details: 0.1 M Tris-HCl pH 7.5, 30 °C, 5 mM ATP, 0.5 mM CoA, 10 mM MgCl2, 2 mM DTT; fatty acid 0-1 mM from stock in 5% Triton X-100
T3 construct: full-length ORF, His-tagged (pET28b, BamHI/SalI), E. coli Rosetta 2 (DE3), Ni-NTA

[3] = target: T1, SlLACS2; experiment: as above; format: biochemical; details: 0.1 M Tris-HCl pH 7.5, 30 °C, 5 mM ATP, 0.5 mM CoA, 10 mM MgCl2, 2 mM DTT; fatty acid 0-1 mM from stock in 5% Triton X-100
[4] = substrate: CCCCCCCCCCCCCCCC(=O)O; experiment: purified protein; format: biochemical, Solanum lycopersicum; details: 0.1 M Tris-HCl pH 7.5, 30 °C, 5 mM ATP, 0.5 mM CoA, 10 mM MgCl2, 2 mM DTT, fatty acid 0-1 mM from stock in 5% Triton X-100
[5] = substrate: CCCCCCCCCCCCCCCCCC(=O)O; experiment: purified protein; format: biochemical, Solanum lycopersicum; details: 0.1 M Tris-HCl pH 7.5, 30 °C, 5 mM ATP, 0.5 mM CoA, 10 mM MgCl2, 2 mM DTT, fatty acid 0-1 mM from stock in 5% Triton X-100

| Molecule | Km [1] [µM] | Km [2] [µM] | Km [3] [µM] | Km [4] [µM] | kcat [4] [min⁻¹] | Km [5] [µM] | kcat [5] [min⁻¹] |
| --- | --- | --- | --- | --- | --- | --- | --- |
| CCCCCCCCCCCCCCCC(=O)O [palmitate (C16:0)] | ~32 | ~180 | ~7 | – | – | – | – |
| CCCCCCCCCCCCCCCCCC(=O)O [sterate (C18:0)] | ~40 | ~166 | ~6 | – | – | – | – |
| B1 | – | – | – | 42.4 ± 3.8 | 6.1 ± 0.6 | 9.6 ± 1.4 | 4.8 ± 0.2 |

— paper PMC12247511, “Evolutionary diversification of acyl-CoA synthetases underpins hydrophobic barrier formation across diverse tomato tissues and beyond” (Horticulture Research, 2025)
